US7910729B2, “Azulenyl nitrone spin trapping agents, methods of making and using same” (The Florida International University Board of Trustees, priority 2004, dated 2011)
Values belong to the molecule of their own block, whether it stands above or below them.

Tests used:
[1] = Antioxidant assay: AIBN-initiated oxidation of cumene to cumene hydroperoxide, followed by 1H NMR; format: physicochemical; conditions: atmospheric oxygen, 37° C., FIG. 1
Method: In the following example, comparative testing of the antioxidant activity of azulenyl nitrone compounds of the invention against a control, was performed. The assay was based on the well-established oxidation of cumene to cumene hydroperoxide by atmospheric oxygen at 37° C. in the presence of the free radical initiator AIBN (Blanchard, H. S. J. Am. Chem. Soc. (1959) 81:4548; Characterization of products formed during the autoxidation of beta carotene. Handelman, G. J., van Kujik, F. J. G. M., Chatterjee, A., Krinsky, N. I. Free Rad. Biol. Med. (1991) 10: 427-37). The progress of the peroxidation reaction is conveniently followed and quantified by 1H NMR spectroscopy by monitoring the appearance and increasing integration of the singlet arising from the methyl groups of cumene hydroperoxide. The use of a long, low power, selective pulse (Shaped radiofrequency pulses in high resolution NMR. Freeman, R. J. Prog. Nuc. Mag. Spec. (1998) 32:59) allowed the growth of the cumene hydroperoxide methyl group singlet to be accurately measured in the presence of a huge excess of cumene. This was shown by using known concentrations of commercially available cumene hydroperoxide to calibrate the peak areas.

[2] = system: lipopolysaccharide (LPS) administered to rats; conditions: cited from earlier work
[3] = system: aged rats; conditions: chronic treatment; cited from earlier work
[4] = aqueous solution at pH 7 and 20° C.; cited from earlier work
[5] = system: aged animal model; conditions: daily intraperitoneal injection, male and female populations; cited from earlier work
[6] = system: human diploid fibroblast cells; conditions: cited from earlier work

SMILES: Cc1ccc(C(C)C)cc2c(/C=[N+](\[O-])C(C)(C)C)cc(/C=C/c3cc(/C=[N+](\[O-])C(C)(C)C)c4cc(C(C)C)ccc(C)c3-4)c1-2 [STAZN, Stilbazulenyl Nitrone]
potency as nitrone-based chain breaking antioxidants / free-radical scavenging/antioxidant activity [1]: remarkable potency

SMILES: CC1(C)Cc2ccccc2C=[N+]1[O-] [MDL 101,002]
LPS-induced leukopenia [2]: failed to prevent leukopenia
LPS-induced pulmonary edema [2]: prevented pulmonary edema
LPS-induced thrombocytopenia [2]: partially reduced thrombocytopenia
organ dysfunction and cytokine secretion induced by LPS [2]: reduces

SMILES: Cc1c(C)c2c(c(C)c1O)CC[C@@](C)(CCC[C@H](C)CCC[C@H](C)CCCC(C)C)O2 [vitamin E, alpha-tocopherol]
age-related changes in cognitive performance [3]: benefit (i.e., improve)
one-electron oxidative potential (vs. NHE) [4]: 0.48 V

SMILES: Cc1ccc(C(C)C)cc2c(C=C3SCCCS3)cc(/C=C/c3cc(/C=[N+](\[O-])C(C)(C)C)c4cc(C(C)C)ccc(C)c3-4)c1-2 [STNXY]
potency as nitrone-based chain breaking antioxidants / free-radical scavenging/antioxidant activity [1]: remarkable potency

melting point: 235 °C (dec.)
SMILES: COC=Cc1cc(/C=C/c2cc(/C=[N+](\[O-])C(C)(C)C)c3cc(C(C)C)ccc(C)c2-3)c2c(C)ccc(C(C)C)cc1-2 [I]

SMILES: CC(C)(C)[N+]([O-])=Cc1ccccc1 [PBN, alpha-phenyl N-tert-butylnitrone]
lifespan [5]: remarkable extension of the lifespan
age-related changes in cognitive performance [3]: benefit (i.e., improve)
onset of senescence [6]: effectively delayed the onset of senescence
